Values quoted from earlier work, collected in US9459262B2, “Systems and methods for determining the percentage of glycated hemoglobin” (Relia Diagnostic Systems, Inc., priority 2009, dated 2016).
Like-named read-outs stand apart in the source and are kept apart here.

SMILES | Ionization constant (pKa) | Ionization constant (pKa) (second value)
OB(O)c1ccc(Br)cc1 [4-Bromophenylboronic acid] | 8.6 | 
O=[N+]([O-])c1ccccc1B(O)O [2-Nitrophenylboronic acid] | 9.2 | 
COc1cccc(B(O)O)c1 [3-Methoxyphenylboronic acid] | 8.7 | 
OB(O)c1cc(C(F)(F)F)cc(C(F)(F)F)c1 [3,5-Bis(trifluoromethyl)phenylboronic acid] | 7.2 | 
Cc1ccccc1B(O)O [2-Methylphenylboronic acid] | 9.7 | 
COC(=O)c1cc(B(O)O)cc([N+](=O)[O-])c1 [3-Methoxycarbonyl-5-nitrophenylboronic acid] | 6.9 | 
OB(O)c1cc(Cl)cc(Cl)c1 [3,5-Dichlorophenylboronic acid] | 7.4 | 
Cc1cccc(B(O)O)c1 [3-Methylphenylboronic acid] | 9.0 | 
Cc1cc(C)cc(B(O)O)c1 [3,5-Dimethylphenylboronic acid] | 9.1 | 
OB(O)c1cccnc1 [3-Pyridylboronic acid] | 4.0 | 8.2

Continued, values first:

Ionization constant (pKa) | Ionization constant (pKa) (second value) | SMILES
10.4 |  | CB(O)O [Methylboronic acid]
7.1 |  | O=[N+]([O-])c1ccc(B(O)O)cc1 [4-Nitrophenylboronic acid]
8.4 |  | O=C(O)c1ccc(B(O)O)cc1 [4-Carboxyphenylboronic acid]
9.3 |  | COc1ccc(B(O)O)cc1 [4-Methoxyphenylboronic acid]
9.3 |  | Cc1ccc(B(O)O)cc1 [4-Methylphenylboronic acid]
4.0 | 10 | OB(O)c1cccc2cccnc12 [8-Quinolinylboronic acid]
9.1 |  | OB(O)c1ccc(F)cc1 [4-Fluorophenylboronic acid]
